Laboratory results published in patent US20060051739A1, “Methods and composition for visualizing and interfering with chromosomal tethering of extrachromosomal molecules” (Salk Institute for Biological Studies, priority 2000, published 2006).

Tested on: COLO320DM cells with lacO/lacR-GFP labelled DMs
Assay: Microtubule inhibitor treatment of cells with lacO/lacR-GFP labelled DMs, immunofluorescence microscopy
Type: cell-based, human
Settings: for appearance of microtubules (immunofluorescence): taxol 10 μM or vinblastine 10 μg/ml for 3 hours prior to harvesting, anti α-tubulin staining; for chromosome organization / association of DMs with chromosomes / peripheral localization of DMs on mitotic chromosomes: taxol 10 μM or vinblastine 10 μg/ml for 3 hours; for chromosome organization: DAPI counterstain; for association of DMs with chromosomes / peripheral localization of DMs on mitotic chromosomes: DMs visualized by lacR-GFP
Source text: Visualizing DM-integrated and free EBV vectors by in vivo lacR-GFP staining: One of the established cell lines, containing DMs tagged with lacO repeat, was infected with lacR-GFP retrovirus. The infected cells were subcloned by limited dilution to obtain sublines in which DMs are more uniformly labelled with lacR-GFP. For time lapse imaging, the same cell line was infected with H2B-CFP and lacR-YFP viruses simultaneously, and the double-labelled cells were subcloned by limited dilution.
Immunofluorescence staining: Cells were harvested by gentle pipetting, attached to slide glasses by cytospin (500 rpm, 1 minute, Shandon, Pittsburgh, Pa.), and fixed with 3.7% formaldehyde for 10 minutes. When indicated, cells were treated with either taxol (10 μM paclitaxel, Sigma Chemical Co., St. Louis, Mo.) or vinblastine (10 μg/ml, Sigma) for 3 hours prior to harvesting them in order to disrupt microtubules. Slides were washed with PBS three times, and treated with blocking buffer (2.5% BSA, 0.2M glycine, 0.1% TritonX-100) for 30 minutes.
Primary and secondary antibodies were diluted in the blocking buffer. Primary antibodies were rabbit anti EBNA-1 serum K67-3 (1:1000, kindly provided by Dr. Jaap Middeldorp, Free University Hospital, Amsterdam, the Netherlands), human CREST autoantiserum hACA-M (for detecting centromeres, 1:2000 dilution) (Sullivan et al., 1994), and monoclonal anti α-tubulin (for detecting microtubules, 1:2000 dilution, Sigma). Following incubation for 60 minutes at room temperature, glass slides were washed three times with PBS. Secondary antibodies were Texas-Red conjugated anti-rabbit IgG (1:500, Jackson ImmunoResearch, West Grove, Pa.), Cy5 conjugated goat anti-human IgG (1:1000, Amersham, Piscataway, N.J.), and rhodamine conjugated anti mouse IgG (1:1000, Boehringer Mannheim), respectively. Following incubation for 60 minutes at room temperature, slides were washed three times with PBS, and chromosomes were counterstained with DAPI (1 μg/ml). Fluorescence of lacR-GFP was preserved well by this protocol.
Microscopy: All images appearing in the Figures were collected using a DeltaVision microscope system (Applied Precision Inc. Issaquah, Wash.) with either a 63×/NA 1.4 or a 100×/NA 1.35 oil immersion objective. For fixed specimens (except for the images of FIG. 2), three-dimensional data sets were collected to visualize EBV vectors and DMs as they distributed in multiple focal planes. Optical sections were collected at 0.2-μm focal intervals; pixel size was 0.111 μm for 63× objective and 0.0669 μm for 100× objective. Out-of-focus contamination was removed from each optical section via deconvolution processing and two-dimensional images were created by projecting the three-dimensional data stacks using the software supplied with the DeltaVision system.
The ability to readily visualize DMs without using FISH protocol has enabled the investigation of the mechanisms that contribute to their behavior during mitosis. The possibility that DMs are held away from the spindle poles by the microtubule-mediated antipolar force, to which normal chromosome arms are also known to be subjected (Fuller, 1995; Rieder et al., 1986) was examined. DM-labelled cells were treated with either a microtubule stabilizer (taxol) or destabilizer (vinblastine). DMs and microtubules were visualized by lacR-GFP and immunofluorescence staining, respectively.

Compound | appearance of microtubules (immunofluorescence) | chromosome organization | association of DMs with chromosomes | peripheral localization of DMs on mitotic chromosomes
CC(=O)O[C@H]1C(=O)[C@@]2(C)[C@H]([C@H](OC(=O)c3ccccc3)[C@]3(O)C[C@H](OC(=O)[C@H](O)[C@@H](NC(=O)c4ccccc4)c4ccccc4)C(C)=C1C3(C)C)[C@]1(OC(C)=O)CO[C@@H]1C[C@@H]2O [taxol, paclitaxel] | multiple aster-like structures | completely disrupted | still associated closely with chromosomes | no longer attached to the periphery of clustered chromosomes
CC[C@]1(O)C[C@@H]2CN(CCc3c([nH]c4ccccc34)[C@@](C(=O)OC)(c3cc4c(cc3OC)N(C)[C@H]3[C@@](O)(C(=O)OC)[C@H](OC(C)=O)[C@]5(CC)C=CCN6CC[C@]43[C@@H]65)C2)C1 [vinblastine] | rod-like microtubules | completely disrupted | still associated closely with chromosomes | no longer attached to the periphery of clustered chromosomes
